Experimental data from PMC8092340 (Oncotarget, 2021).
Where two headings read alike, the source gives them in different places. Blank lines part the entries; values can stand above or below the molecule they belong to.

Columns and labels:
EJ-DR U2OS cells = test: Cytotoxicity in the absence of DSB ligands (CT), Hoechst cell count; format: cell-based, human; conditions: Supplementary Table 2, mean ± SEM of four technical replicates
HR = test: EJ-DR 384-well imaging assay, HR (GFP) readout; conditions: read-out: HR IC50
alt-NHEJ [1] = test: EJ-DR 384-well imaging assay, alt-NHEJ (RFP) readout; conditions: for Selectivity Index (HR IC50/alt-NHEJ IC50) / selectivity index SI (CT IC50/alt-NHEJ IC50): ratio; for Selectivity Index (HR IC50/alt-NHEJ IC50): Supplementary Table 2
alt-NHEJ [2] = conditions: ratio; Supplementary Table 2
[3] = Cytotoxicity in the absence of DSB ligands (CT), Hoechst cell count; format: cell-based, human; conditions: human, EJ-DR U2OS cells, no DSB ligands
L type Cav 1.2 = target: T1, L type Cav 1.2 (Homo sapiens, UniProt Q13936); test: Calcium channel blocking study, L-type; format: cell-based; conditions: CHO cells stably expressing the channel
T1 construct: host or cells: CHO

T type Cav 3.1 = target: T2, T type Cav 3.1 (Homo sapiens, UniProt O43497); test: Calcium channel blocking study, T-type Cav3.1; format: cell-based; conditions: HEK293 cells stably expressing the channel
T2 construct: host or cells: HEK293

T type Cav 3.2 = target: T3, T type Cav 3.2 (Homo sapiens, UniProt O95180); test: Calcium channel blocking study, T-type Cav3.2; format: cell-based; conditions: HEK293 cells stably expressing the channel
T3 construct: host or cells: HEK293

T type Cav 3.3 = target: T4, T type Cav 3.3 (Homo sapiens, UniProt Q9P0X4); test: Calcium channel blocking study, T-type Cav3.3; format: cell-based; conditions: HEK293 cells stably expressing the channel
T4 construct: host or cells: HEK293

Human hERG (Kv11.1) = target: T5, Human hERG (Kv11.1) (Homo sapiens, UniProt Q12809); test: Automated hERG inhibition patch clamp assay; format: cell-based; conditions: for IC50: patch clamp, CHO-K1 cells; for SIhERG (hERG IC50/alt-NHEJ IC50), called fold reduction in hERG potency: ratio
T5 construct: host or cells: CHO-K1
Protocol: Automated whole cell voltage clamp hERG inhibition assays were performed in Human hERG (Kv11.1) expressed in CHO-K1 cells optimized for automated patch clamp studies by Sophion Bioscience A/S [47].

[4] = In vivo pharmacokinetic study, plasma
Protocol: (§1) These measurements were used to calculate various pharmacokinetic parameters critical to bioavailability including time to reach maximum concentration (tmax), maximum concentration achieved (Cmax), and half-life (t1/2) (Figure 5C, 5D, Supplementary Table 1).
(§2) Compound concentrations were measured at these time-points using Liquid Chromatography with tandem mass spectrometry (LC-MS-MS). Pharmacokinetic studies were performed by orally dosing test compounds at 30 mg/kg dissolved in 50% PEG400 and 50% water in female athymic nude mice. Plasma and brain tissue concentration were measured using mass spectrometry (MS).

[5] = In vivo pharmacokinetic study, brain tissue; conditions: oral 30 mg/kg, female athymic nude mice
Protocol: as §1, §2

[6] = EJ-DR assay, Supplementary Table 2, mean ± SEM of four technical replicates
[7] = read-out: alt-NHEJ IC50, EJ-DR assay, Supplementary Table 2, mean ± SEM of four technical replicates
[8] = Homo sapiens, read-out: alt-NHEJ IC50
[9] = oral 30 mg/kg, female athymic nude mice
[10] = Homo sapiens, U2OS, read-out: alt-NHEJ IC50

T5 sequence (Q12809 whole entry): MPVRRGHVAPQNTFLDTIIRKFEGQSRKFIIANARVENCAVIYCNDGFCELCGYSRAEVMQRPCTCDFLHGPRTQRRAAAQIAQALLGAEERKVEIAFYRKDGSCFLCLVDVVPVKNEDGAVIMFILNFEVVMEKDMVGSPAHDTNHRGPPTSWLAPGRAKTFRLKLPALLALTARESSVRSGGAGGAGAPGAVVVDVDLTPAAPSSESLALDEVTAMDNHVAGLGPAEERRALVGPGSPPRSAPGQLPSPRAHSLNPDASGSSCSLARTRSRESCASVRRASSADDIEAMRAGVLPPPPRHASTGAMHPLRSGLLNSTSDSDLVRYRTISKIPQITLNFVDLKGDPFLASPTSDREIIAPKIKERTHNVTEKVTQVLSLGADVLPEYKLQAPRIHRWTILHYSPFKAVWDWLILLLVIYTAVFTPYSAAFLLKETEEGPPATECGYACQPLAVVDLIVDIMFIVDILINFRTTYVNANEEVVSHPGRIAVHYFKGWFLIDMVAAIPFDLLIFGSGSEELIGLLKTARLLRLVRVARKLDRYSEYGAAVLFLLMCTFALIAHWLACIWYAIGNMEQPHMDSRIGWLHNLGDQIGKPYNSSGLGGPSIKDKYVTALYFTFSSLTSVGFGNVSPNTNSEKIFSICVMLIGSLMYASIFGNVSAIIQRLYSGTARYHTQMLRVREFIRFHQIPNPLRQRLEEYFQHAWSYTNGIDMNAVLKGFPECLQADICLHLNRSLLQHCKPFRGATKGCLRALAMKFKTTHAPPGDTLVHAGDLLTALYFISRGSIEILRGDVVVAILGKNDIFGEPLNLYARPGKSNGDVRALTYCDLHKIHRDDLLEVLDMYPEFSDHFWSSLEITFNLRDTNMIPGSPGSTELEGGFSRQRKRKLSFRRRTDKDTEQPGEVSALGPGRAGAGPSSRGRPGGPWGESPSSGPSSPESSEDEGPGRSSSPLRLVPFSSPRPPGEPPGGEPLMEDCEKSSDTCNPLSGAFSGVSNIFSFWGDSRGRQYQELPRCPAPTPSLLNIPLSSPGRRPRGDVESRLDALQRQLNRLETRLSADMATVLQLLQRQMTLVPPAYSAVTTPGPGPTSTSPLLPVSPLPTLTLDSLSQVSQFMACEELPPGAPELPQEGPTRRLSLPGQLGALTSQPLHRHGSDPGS
T2 sequence (O43497 whole entry): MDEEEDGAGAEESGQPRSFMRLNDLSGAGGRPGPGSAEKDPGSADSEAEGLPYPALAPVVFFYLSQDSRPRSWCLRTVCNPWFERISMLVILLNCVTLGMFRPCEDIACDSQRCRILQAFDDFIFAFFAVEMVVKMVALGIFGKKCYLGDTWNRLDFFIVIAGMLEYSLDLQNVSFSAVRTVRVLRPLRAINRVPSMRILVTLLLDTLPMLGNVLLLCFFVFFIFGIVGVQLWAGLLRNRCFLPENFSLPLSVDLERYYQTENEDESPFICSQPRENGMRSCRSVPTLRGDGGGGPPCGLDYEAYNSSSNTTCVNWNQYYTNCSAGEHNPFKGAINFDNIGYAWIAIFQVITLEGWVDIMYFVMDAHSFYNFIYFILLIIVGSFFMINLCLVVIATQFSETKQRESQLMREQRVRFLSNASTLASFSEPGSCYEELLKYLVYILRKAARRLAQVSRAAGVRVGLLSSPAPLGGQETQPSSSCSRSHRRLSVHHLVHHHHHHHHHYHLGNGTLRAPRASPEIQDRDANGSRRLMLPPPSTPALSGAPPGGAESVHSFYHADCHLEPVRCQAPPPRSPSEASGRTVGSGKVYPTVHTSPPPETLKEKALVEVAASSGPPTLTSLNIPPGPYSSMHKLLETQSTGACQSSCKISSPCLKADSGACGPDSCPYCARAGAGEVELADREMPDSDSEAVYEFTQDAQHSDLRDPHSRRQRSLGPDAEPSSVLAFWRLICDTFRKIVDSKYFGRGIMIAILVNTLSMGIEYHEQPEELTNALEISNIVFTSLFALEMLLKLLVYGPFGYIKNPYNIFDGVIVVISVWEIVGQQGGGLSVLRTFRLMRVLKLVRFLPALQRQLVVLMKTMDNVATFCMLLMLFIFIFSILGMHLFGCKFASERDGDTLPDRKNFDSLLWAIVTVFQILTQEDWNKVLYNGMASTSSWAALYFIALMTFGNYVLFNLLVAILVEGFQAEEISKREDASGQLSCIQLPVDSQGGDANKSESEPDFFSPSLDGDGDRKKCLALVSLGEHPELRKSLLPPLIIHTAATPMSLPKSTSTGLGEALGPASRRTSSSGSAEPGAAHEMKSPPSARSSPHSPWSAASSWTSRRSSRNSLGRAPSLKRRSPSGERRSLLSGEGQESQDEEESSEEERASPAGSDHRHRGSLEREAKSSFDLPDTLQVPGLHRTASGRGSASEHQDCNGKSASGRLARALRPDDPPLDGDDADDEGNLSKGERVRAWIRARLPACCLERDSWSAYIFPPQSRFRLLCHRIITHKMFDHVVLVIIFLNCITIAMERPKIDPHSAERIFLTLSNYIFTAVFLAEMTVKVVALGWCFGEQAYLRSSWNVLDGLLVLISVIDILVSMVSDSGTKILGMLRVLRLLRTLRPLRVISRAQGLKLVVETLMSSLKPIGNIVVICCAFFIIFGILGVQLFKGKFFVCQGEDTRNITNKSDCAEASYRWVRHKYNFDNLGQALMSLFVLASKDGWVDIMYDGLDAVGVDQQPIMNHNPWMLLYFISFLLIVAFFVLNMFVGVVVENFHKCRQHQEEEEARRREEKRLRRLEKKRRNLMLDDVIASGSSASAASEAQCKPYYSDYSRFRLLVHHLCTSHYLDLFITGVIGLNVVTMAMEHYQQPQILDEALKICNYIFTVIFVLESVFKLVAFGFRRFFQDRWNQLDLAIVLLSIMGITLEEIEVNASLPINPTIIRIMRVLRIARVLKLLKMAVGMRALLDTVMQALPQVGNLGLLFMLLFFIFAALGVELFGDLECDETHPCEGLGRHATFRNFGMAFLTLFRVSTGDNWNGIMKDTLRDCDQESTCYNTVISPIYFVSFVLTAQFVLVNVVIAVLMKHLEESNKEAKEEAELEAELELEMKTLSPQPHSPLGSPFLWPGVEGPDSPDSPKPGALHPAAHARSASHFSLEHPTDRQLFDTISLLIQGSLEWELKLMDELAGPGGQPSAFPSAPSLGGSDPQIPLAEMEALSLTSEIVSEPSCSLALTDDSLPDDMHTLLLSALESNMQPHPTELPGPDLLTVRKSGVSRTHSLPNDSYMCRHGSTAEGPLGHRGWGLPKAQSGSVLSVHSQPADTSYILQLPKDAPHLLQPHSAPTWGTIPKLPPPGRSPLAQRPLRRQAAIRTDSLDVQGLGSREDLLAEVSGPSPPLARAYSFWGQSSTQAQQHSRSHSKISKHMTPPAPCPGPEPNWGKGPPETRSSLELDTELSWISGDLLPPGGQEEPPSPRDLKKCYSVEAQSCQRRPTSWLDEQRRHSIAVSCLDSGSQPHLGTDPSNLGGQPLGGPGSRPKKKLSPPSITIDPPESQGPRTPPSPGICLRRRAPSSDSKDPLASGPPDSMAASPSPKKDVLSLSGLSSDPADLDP

- IC50 (HR; [6]): > 60 µM
SMILES: CCc1cncnc1N1CCN(Cc2nc3ccc(C(F)(F)F)cc3[nH]2)CC1 [PF-04708671]
- IC50 (EJ-DR U2OS cells): 36.9 ± 3.82 µM
- IC50 (alt-NHEJ [1]; [7]): > 60 µM

- IC50 (HR; Homo sapiens): 4.53 ± 5.75 µM
SMILES: Cn1ncc(Cl)c1-c1cc(C(=O)N[C@H](CN)Cc2cccc(F)c2)sc1Cl [Afuresertib]
- IC50 (EJ-DR U2OS cells; Homo sapiens, U2OS): 14.2 ± 2.32 µM
- Selectivity Index (HR IC50/alt-NHEJ IC50) (alt-NHEJ [2]): 7.43
- IC50 (alt-NHEJ [1]; [8]): 0.61 ± 0.46 µM

- IC50 (T type Cav 3.1): 5.3 µM
- IC50 (T type Cav 3.2): 5.6 µM
- IC50 (T type Cav 3.3): 8.2 µM
- half-life ([4]; female, athymic nude, mouse, plasma, po, 30 mg/kg): 1.81 h
- Cmax ([4]; female, athymic nude, mouse, plasma, po, 30 mg/kg, Maximum concentration (Cmax), oral 30 mg/kg, female athymic nude mice, YU252222 given as methyl ester prodrug): 68.9 ng/mL
- % AUC Extrapolation [4, 9]: 1.1%
- AUC(0-x)/Dose [4, 9]: 5.83 ng·h/mL/mg/kg
- Cmax/Dose [4, 9]: 2.30 ng/mL/mg/kg
- Time at which Cmax was observed (tmax) [4, 9]: 1.0 h
- Area under concentration vs time curve (AUC) (0-x) ([4]; oral 30 mg/kg, female athymic nude mice, YU252222 given as methyl ester prodrug): 175 ng·h/mL
- Maximum concentration (Cmax) ([4]; oral 30 mg/kg, female athymic nude mice, YU252222 given as methyl ester prodrug, 30 mg/kg): < 100 ng/mL
- IC50 (HR; Homo sapiens): > 60 µM
SMILES: CC(C)C1c2ccc(F)cc2CCC1(O)CCN1CC(Oc2ccc(Cl)cn2)CC1CO (stereo not shown) [YU252377]
- IC50 at 96 h ([3]; Table 1, read-out: Cytotoxicity IC50): 14.8 µM
- IC50 (L type Cav 1.2): 6.3 µM
- IC50 (Human hERG (Kv11.1)): 6.43 µM
- SIhERG (hERG IC50/alt-NHEJ IC50), called fold reduction in hERG potency (Human hERG (Kv11.1)): 4.20
- brain exposure [5]: did not achieve detectable brain exposure
- IC50 (alt-NHEJ [1]; [10]): 1.53 µM
- IC50 (alt-NHEJ [1]; Homo sapiens, read-out: nc-EJ IC50): 1.5 µM

- IC50 (HR; Homo sapiens): 22.1 ± 1.84 µM
SMILES: CC(C)NC[C@@H](C(=O)N1CCN(c2ncnc3c2[C@H](C)C[C@H]3O)CC1)c1ccc(Cl)cc1 [GDC-0068]
- IC50 (EJ-DR U2OS cells; Homo sapiens, U2OS): 41.5 ± 3.32 µM
- IC50 (alt-NHEJ [1]; [8]): 9.4 ± 1.78 µM
- Selectivity Index (HR IC50/alt-NHEJ IC50) (alt-NHEJ [1]): 2.35

- IC50 (HR; [6]): 0.06 ± 0.01 µM
SMILES: CC(=O)c1c(C)c2cnc(Nc3ccc(N4CCNCC4)cn3)nc2n(C2CCCC2)c1=O [Pablociclib]
- IC50 (EJ-DR U2OS cells): 1.37 ± 0.36 µM
- Selectivity Index (HR IC50/alt-NHEJ IC50) (alt-NHEJ [1]): 1.50
- IC50 (alt-NHEJ [1]; [7]): 0.04 ± 0.01 µM

- IC50 (HR; EJ-DR U2OS cells, text and figures): 7.18 µM
SMILES: C[C@H]1COCCN1c1cc(C2(S(=O)(=O)C3CC3)CC2)nc(-c2ccc(NC(=S)NCCO)cc2)n1 [mTORC1/2 inhibitor, AZD 3147]
- selectivity index SI (CT IC50/alt-NHEJ IC50) (alt-NHEJ [1]): 7.22
- IC50 (alt-NHEJ [1]; read-out: alt-NHEJ IC50, EJ-DR U2OS cells, text and figures): 0.09 µM

SMILES: COC[C@@H]1C[C@@H](Oc2nccc3ccccc23)CN1CC[C@@]1(O)CCc2cc(F)ccc2[C@@H]1C(C)C [YU252373]
- IC50 (Human hERG (Kv11.1)): 9.8 µM
- SIhERG (hERG IC50/alt-NHEJ IC50), called fold reduction in hERG potency (Human hERG (Kv11.1)): 5.76
- IC50 (alt-NHEJ [1]; [10]): 1.7 µM

- IC50 (HR; Homo sapiens): 31.6 ± 59.2 µM
SMILES: NC1(C(=O)N[C@@H](CCO)c2ccc(Cl)cc2)CCN(c2ncnc3[nH]ccc23)CC1 [AZD 5363]
- IC50 (EJ-DR U2OS cells; Homo sapiens, U2OS): 48.5 ± 73 µM
- IC50 (alt-NHEJ [1]; [8]): 16.9 ± 26.5 µM
- Selectivity Index (HR IC50/alt-NHEJ IC50) (alt-NHEJ [1]): 1.87

- IC50 (HR; Homo sapiens): 2.85 ± 1.04 µM
SMILES: COc1ccc(-c2ccc3c(N4CCOC[C@@H]4C)nc(N4CCOC[C@@H]4C)nc3n2)cc1CO [AZD 8055]
- IC50 (EJ-DR U2OS cells; Homo sapiens, U2OS): 0.89 ± 0.28 µM
- IC50 (alt-NHEJ [1]; [8]): 0.05 ± 0.01 µM
- Selectivity Index (HR IC50/alt-NHEJ IC50) (alt-NHEJ [1]): 57.00

SMILES: CC(C)[C@H]1c2ccc(F)cc2CC[C@]1(O)CC(=O)N(C)CCCc1nc2ccccc2[nH]1 [YU241551]
- IC50 at 96 h ([3]; figures, read-out: CT IC50 (cytotoxicity)): > 60 µM
- IC50 (alt-NHEJ [1]; [10]): > 60 µM
- selectivity index SI (CT IC50/alt-NHEJ IC50) (alt-NHEJ [1]): > 1

SMILES: O=c1cc(N2CCOCC2)oc2c(-c3cccc4c3sc3ccccc34)cccc12 [NU 4771]
- effect on alt-NHEJ and HR in the EJ-DR assay (alt-NHEJ [1]; EJ-DR U2OS cells): increase in both alt-NHEJ and HR
